Target: T1, human PF4 (Homo sapiens, UniProt P02776)
T1 construct: PF4 is a 70 amino acid, lysine-rich 7.8 kDa platelet-specific protein; made in house; host or cells: Escherichia coli BL21DE3 pLysS (pT7-7) and/or Drosophila S2 cells
T1 sequence (P02776 32-101): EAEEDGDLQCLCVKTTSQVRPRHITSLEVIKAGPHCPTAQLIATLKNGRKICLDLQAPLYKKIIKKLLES
Assay: Inhibition of PF4 tetramer formation (BS3 cross-linking, SDS-PAGE)
Assay type: biochemical
Conditions: for inhibition at 1 µM: 1 μM inhibitor; for inhibition at 1 µM / inhibition at 3 µM / inhibition at 5 µM / inhibition at 10 µM: read-out: % inhibition of PF4 tetramer formation at single concentration of inhibitor; for inhibition at 3 µM: 3 μM inhibitor (column A); for IC50: read-out: IC50 of PF4 tetramer formation inhibition; for inhibition at 5 µM: 5 μM inhibitor; for inhibition at 10 µM: 10 μM inhibitor (column A)
Summary of the method: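 Recombinant human wild-type PF4 (E. coli-expressed, heparin-purified), 10 μg/ml in PBS, incubated with compound 15 min at 37° C or 60 min at room temperature, then cross-linked with 0.2 mM BS3 for 30 min at room temperature. Reducing 12% SDS-PAGE; bands quantified as % tetramer, trimer, dimer, monomer versus compound-free control.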

CS(=O)(=O)N1CCC(NC(=O)C2C(=O)c3ccc(S(=O)(=O)c4ccc5c(c4)C(=O)C(C(=O)NC4CCN(S(C)(=O)=O)CC4)C5=O)cc3C2=O)CC1 (stereo not shown) [Example 364, N-(1-methanesulfonylpiperidin-4-yl)-5-({2-[(1-methanesulfonylpiperidin-4-yl)carbamoyl]-1,3-dioxo-2,3-dihydro-1H-inden-5-yl}sulfonyl)-1,3-dioxo-2,3-dihydro-1H-indene-2-carboxamide]
inhibition at 1 µM: 13% | inhibition at 3 µM: 74% | IC50: 1350 nM

CC(C)(C)OC(=O)N1CCC[C@H]1CC(=O)C1C(=O)c2ccc(C(=O)c3ccc4c(c3)C(=O)C(C(=O)C[C@@H]3CCCN3C(=O)OC(C)(C)C)C4=O)cc2C1=O (stereo in doubt) [Example 112, tert-butyl (2S)-2-{2-[5-(2-{2-[(2S)-1-[(tert-butoxy)carbonyl]pyrrolidin-2-yl]acetyl}-1,3-dioxo-2,3-dihydro-1H-indene-5-carbonyl)-1,3-dioxo-2,3-dihydro-1H-inden-2-yl]-2-oxoethyl}pyrrolidine-1-carboxylate]
inhibition at 5 µM: 84% | inhibition at 10 µM: 89% | IC50: 1200 nM

COCC(=O)C1C(=O)c2ccc(Oc3ccc4c(c3)C(=O)C(C(=O)COC)C4=O)cc2C1=O (stereo not shown) [Example 249, 2-(2-methoxyacetyl)-5-{[2-(2-methoxyacetyl)-1,3-dioxo-2,3-dihydro-1H-inden-5-yl]oxy}-2,3-dihydro-1H-indene-1,3-dione]
inhibition at 1 µM: 19% | inhibition at 3 µM: 36% | IC50: 3000 nM

CC(C)CCCC(=O)C1C(=O)c2ccc(C(=O)c3ccc4c(c3)C(=O)C(C(=O)CCCC(C)C)C4=O)cc2C1=O (stereo not shown) [Example 189, 2-(5-methylhexanoyl)-5-[2-(5-methylhexanoyl)-1,3-dioxo-2,3-dihydro-1H-indene-5-carbonyl]-2,3-dihydro-1H-indene-1,3-dione]
inhibition at 5 µM: 62% | inhibition at 10 µM: 71%

O=C(CN1CCCC1=O)C1C(=O)c2ccc(C#Cc3ccc4c(c3)C(=O)C(C(=O)CN3CCCC3=O)C4=O)cc2C1=O (stereo not shown) [Example 293, 5-(2-{1,3-dioxo-2-[2-(2-oxopyrrolidin-1-yl)acetyl]-2,3-dihydro-1H-inden-5-yl}ethynyl)-2-[2-(2-oxopyrrolidin-1-yl)acetyl]-2,3-dihydro-1H-indene-1,3-dione]
inhibition at 1 µM: 28% | inhibition at 3 µM: 43%

CC(C)(C)OC(=O)NCC(=O)C1C(=O)c2ccc(C(=O)c3ccc4c(c3)C(=O)C(C(=O)CNC(=O)OC(C)(C)C)C4=O)cc2C1=O (stereo not shown) [Example 173, tert-butyl N-(2-{5-[2-(2-{[(tert-butoxy)carbonyl]amino}acetyl)-1,3-dioxo-2,3-dihydro-1H-indene-5-carbonyl]-1,3-dioxo-2,3-dihydro-1H-inden-2-yl}-2-oxoethyl) carbamate]
inhibition at 5 µM: 87% | inhibition at 10 µM: 97% | IC50: 2200 nM

O=C(c1ccc2c(c1)C(=O)C(C(=O)NC1CCC1)C2=O)c1ccc2c(c1)C(=O)C(C(=O)NC1CCC1)C2=O (stereo not shown) [Example 68, 5,5′-carbonylbis(n-cyclobutyl-1,3-dioxo-2,3-dihydro-1h-indene-2-carboxamide)]
inhibition at 5 µM: 45% | inhibition at 10 µM: 86% | IC50: 1540 nM

O=C1c2ccc(S(=O)(=O)c3ccc4c(c3)C(=O)C(C(=O)C3CCCCC3)C4=O)cc2C(=O)C1C(=O)C1CCCCC1 (stereo not shown) [Example 288, 2-cyclohexanecarbonyl-5-[(2-cyclohexanecarbonyl-1,3-dioxo-2,3-dihydro-1H-inden-5-yl)sulfonyl]-2,3-dihydro-1H-indene-1,3-dione]
inhibition at 1 µM: 10% | inhibition at 3 µM: 15% | IC50: 3000 nM

CC(C)(C)OC(=O)NCC(=O)C1C(=O)c2ccc(S(=O)(=O)c3ccc4c(c3)C(=O)C(C(=O)CNC(=O)OC(C)(C)C)C4=O)cc2C1=O (stereo not shown) [Example 174, tert-butyl N-[2-(5-{[2-(2-{[(tert-butoxy)carbonyl]amino}acetyl)-1,3-dioxo-2,3-dihydro-1H-inden-5-yl]sulfonyl}-1,3-dioxo-2,3-dihydro-1H-inden-2-yl)-2-oxoethyl]carbamate]
inhibition at 5 µM: 84% | inhibition at 10 µM: 94% | IC50: 11000 nM

CC[C@H](C)[C@H](NC(=O)OC(C)(C)C)C(=O)C1C(=O)c2ccc(S(=O)(=O)c3ccc4c(c3)C(=O)C(C(=O)[C@@H](NC(=O)OC(C)(C)C)[C@@H](C)CC)C4=O)cc2C1=O (stereo partly drawn) [Example 279, tert-butyl N-[(2S,3S)-1-[5-({2-[(2S,3S)-2-{[(tert-butoxy)carbonyl]amino}-3-methylpentanoyl]-1,3-dioxo-2,3-dihydro-1H-inden-5-yl}sulfonyl)-1,3-dioxo-2,3-dihydro-1H-inden-2-yl]-3-methyl-1-oxopentan-2-yl]carbamate]
inhibition at 1 µM: 33% | inhibition at 3 µM: 15% | IC50: 3000 nM

CC(C)(C)OC(=O)N1C[C@@H]2[C@H](C1)[C@H]2C(=O)C1C(=O)c2ccc(C(=O)c3ccc4c(c3)C(=O)C(C(=O)[C@H]3[C@@H]5CN(C(=O)OC(C)(C)C)C[C@@H]53)C4=O)cc2C1=O (stereo partly shown) [Example 121]
inhibition at 5 µM: 82% | inhibition at 10 µM: 80% | IC50: 3500 nM

CC(C)(C)OC(=O)N1C[C@H](F)C[C@H]1C(=O)C1C(=O)c2ccc(-c3ccc4c(c3)C(=O)C(C(=O)[C@@H]3C[C@@H](F)CN3C(=O)OC(C)(C)C)C4=O)cc2C1=O (stereo partly drawn) [Example 215, tert-butyl (2S,4R)-2-{2′-[(2S,4R)-1-[(tert-butoxy)carbonyl]-4-fluoropyrrolidine-2-carbonyl]-1,1′,3,3′-tetraoxo-1H,1′H,2H,2′H,3H,3′H-[5,5′-biindene]-2-carbonyl}-4-fluoropyrrolidine-1-carboxylate]
IC50: 2400 nM

COC(=O)[C@H]1CCCCC1C(=O)C1C(=O)c2ccc(C(=O)c3ccc4c(c3)C(=O)C(C(=O)C3CCCC[C@@H]3C(=O)OC)C4=O)cc2C1=O (stereo in doubt) [Example 256, methyl (1S)-2-(5-{2-[(2S)-2-(methoxycarbonyl)cyclohexanecarbonyl]-1,3-dioxo-2,3-dihydro-1H-indene-5-carbonyl}-1,3-dioxo-2,3-dihydro-1H-indene-2-carbonyl)cyclohexane-1-carboxylate]
inhibition at 1 µM: 13% | inhibition at 3 µM: 32%

O=C(O)CCNC(=O)C1C(=O)c2ccc(Oc3ccc4c(c3)C(=O)C(C(=O)NCCC(=O)O)C4=O)cc2C1=O (stereo not shown) [Example 305, 3-{[5-({2-[(2-carboxyethyl)carbamoyl]-1,3-dioxo-2,3-dihydro-1H-inden-5-yl}oxy)-1,3-dioxo-2,3-dihydro-1H-inden-2-yl]formamido}propanoic acid]
inhibition at 1 µM: 13% | inhibition at 3 µM: 50%

CC(C)(C)CC(=O)NCC(=O)C1C(=O)c2ccc(S(=O)(=O)c3ccc4c(c3)C(=O)C(C(=O)CNC(=O)CC(C)(C)C)C4=O)cc2C1=O (stereo not shown) [Example 186, N-{2-[5-({2-[2-(3,3-dimethylbutanamido)acetyl]-1,3-dioxo-2,3-dihydro-1H-inden-5-yl}sulfonyl)-1,3-dioxo-2,3-dihydro-1H-inden-2-yl]-2-oxoethyl}-3,3-dimethylbutanamide]
inhibition at 5 µM: 95% | inhibition at 10 µM: 95% | IC50: 2600 nM

CC(C)[C@@H](N)C(=O)C1C(=O)c2ccc(C(=O)c3ccc4c(c3)C(=O)C(C(=O)[C@H](N)C(C)C)C4=O)cc2C1=O (stereo partly drawn) [Example 352, 2-[(2R)-2-amino-3-methylbutanoyl]-5-{2-[(2R)-2-amino-3-methylbutanoyl]-1,3-dioxo-2,3-dihydro-1H-indene-5-carbonyl}-2,3-dihydro-1H-indene-1,3-dione]
inhibition at 1 µM: 35% | inhibition at 3 µM: 78%

COCCOCCOCCNC(=O)C1C(=O)c2ccc(C(=O)c3ccc4c(c3)C(=O)C(C(=O)NCCOCCOCCOC)C4=O)cc2C1=O (stereo not shown) [Example 388, N-{2-[2-(2-methoxyethoxy)ethoxy]ethyl}-5-[2-({2-[2-(2-methoxyethoxy)ethoxy]ethyl}carbamoyl)-1,3-dioxo-2,3-dihydro-1H-indene-5-carbonyl]-1,3-dioxo-2,3-dihydro-1H-indene-2-carboxamide]
inhibition at 1 µM: 23% | inhibition at 3 µM: 31%

CC(=O)NCC(=O)C1C(=O)c2ccc(S(=O)(=O)c3ccc4c(c3)C(=O)C(C(=O)CNC(C)=O)C4=O)cc2C1=O (stereo not shown) [Example 175, N-[2-(5-{[2-(2-acetamidoacetyl)-1,3-dioxo-2,3-dihydro-1H-inden-5-yl]sulfonyl}-1,3-dioxo-2,3-dihydro-1H-inden-2-yl)-2-oxoethyl]acetamide]
inhibition at 5 µM: 90% | inhibition at 10 µM: 97% | IC50: 1100 nM

COCCCNC(=O)C1C(=O)c2ccc(C(=O)c3ccc4c(c3)C(=O)C(C(=O)NCCCOC)C4=O)cc2C1=O (stereo not shown) [Example 88, N-(3-methoxypropyl)-5-{2-[(3-methoxypropyl)carbamoyl]-1,3-dioxo-2,3-dihydro-1H-indene-5-carbonyl}-1,3-dioxo-2,3-dihydro-1H-indene-2-carboxamide]
IC50: 21000 nM

CSCC(=O)C1C(=O)c2ccc(C(=O)c3ccc4c(c3)C(=O)C(C(=O)CSC)C4=O)cc2C1=O (stereo not shown) [Example 281, 2-[2-(methylsulfanyl)acetyl]-5-{2-[2-(methylsulfanyl)acetyl]-1,3-dioxo-2,3-dihydro-1H-indene-5-carbonyl}-2,3-dihydro-1H-indene-1,3-dione]
inhibition at 10 µM: 58% | IC50: 10000 nM
